What was measured:
wheat = test: Test B pan test in Sassafras sandy loam soil, pre- and postemergence; assay type: in vivo, Triticum aestivum; details: scale 0 to 100
Text: (§1) Three round pans (25 cm diameter by 12.5 cm deep) were filled with Sassafras sandy loam soil. One pan was planted with nutsedge (Cyperus rotundus) tubers, crabgrass (Digitaria sanguinalis), sicklepod (Cassia obtusifolia), jimsonweed (Datura stramonium), velvetleaf (Abutilon theophrasti), lambsquarters (Chenopodim album), rice (Oryza sativa) and teaweed (Sida spinosa). The second pot was planted with green foxtail (Setaria viridis), cocklebur (Xantium pensyivanicum), morningglory (lpomoea hederacea), cotton (Gossypium hirsutum), johnsongrass (Sorghum halepense), barnyardgrass (Echinochloa crusgalli), corn (Zea mays), soybean (Glycine max) and giant foxtail (Setaria faberi). The third pot was planted with wheat (Triticum aestivum), barley (Hordeum vulgare), wild buckwheat (Polgonum convolvulus L.), cheatgrass (Bromus secalinus L.), sugarbeet (Beta vulgaris), wild oats (Avena fatua), viola (Viola arvensis), blackgrass (Alopecurus myosuroides), and rape (Brassica napus). The plants were grown for approximately fourteen days, then sprayed postemergence with the chemicals dissolved in a non-phytotoxic solvent.
(§2) Three round pans (25 cm diameter by 12.5 cm deep) were filled with Sassafras sandy loam soil. One pan was planted with nutsedge tubers, crabgrass, sicklepod, jimsonweed, velvetleaf, lambsquarters, rice and teaweed. The second pot was planted with green foxtail, cocklebur, morningglory, cottom, johnsongrass, . barnyardgrass, corn, soybean and giant foxtail. The third pot was planted with wheat, barley, wild buckwheat, cheatgrass, sugarbeet, wild oat, viola, blackgrass and rape. The three pans were sprayed preemer gence with the chemicals dissolved in a non-phytotoxic solvent.
(§3) Treated plants and controls were maintained in the greenhouse for 24 days, then all rated plants were compared to controls and visually rated for plant response.
(§4) A dash (-) response means no test.

morningglory [1] = test: Test A greenhouse herbicide test, pre- and postemergence; assay type: in vivo, Ipomoea spp.; details: rated after sixteen days
Text: (§5) Seeds of crabgrass (Digitaria spp.), barnyardgrass (Echinochloa crusgalli), cheatgrass (Bromus Secalinus), giant foxtail (Setaria faberii), wild oats (Avena fatua), velvetleaf (Abutilon theophrasti), morningglory (Ipomoea spp. , cocklebur (Xanthium pensylvanicum). sorghum, corn, barley, soybean, sugarbeet, cotton, rice, wheat and purple nutsedge (Cyperus rotundus) tubers were planted and treated preemergence with the test chemicals dissolved in a non-phytotoxic solvent. At the same time, these crop and weed species were treated with a soil/foliage application. At the time of treatment, the plants ranged in height from 2 to 18 cm. Treated plants and controls were maintained in a greenhouse for sixteen days, after which all species were compared to controls and visually rated for response to treatment. The ratings, summarized in Table A, are based on a numerical scale extending from 0 = no injury, to 10 = complete kill. The accompanying descriptive symbols have the following meanings: • B = burn; • C = chlorosis/necrosis; • D = defoliation; • E = emergence inhibition; • G = growth retardation; • H = formative effect; • U = unusual pigmentation; • X = axillary stimulation; • S = albinism; and • 6Y = abscised buds or flowers.

wild oats [2] = test: as above; assay type: in vivo, Avena fatua; details: PREEMERGENCE; RATE 0.01 KG/HA; rated after sixteen days
Text: as §5

cocklebur [3] = test: as above; assay type: in vivo, Xanthium pensylvanicum; details: POSTEMERGENCE, rated after sixteen days
Text: as §5

barnyardgrass [4] = test: Test B pan test in Sassafras sandy loam soil, pre- and postemergence; assay type: in vivo, Echinochloa crusgalli; details: scale 0 to 100
Text: as §1, §2, §3, §4

crabgrass = test: as above; assay type: in vivo, Digitaria sanguinalis; details: scale 0 to 100
Text: as §1, §2, §3, §4

morningglory [5] = test: as above; assay type: in vivo, lpomoea hederacea; details: scale 0 to 100
Text: as §1, §2, §3, §4

wild oats [6] = test: as above; assay type: in vivo, Avena fatua; details: scale 0 to 100
Text: as §1, §2, §3, §4

sugarbeet = test: Test A greenhouse herbicide test, pre- and postemergence; assay type: in vivo; details: POSTEMERGENCE, rated after sixteen days
Text: as §5

cotton = test: as above; assay type: in vivo; details: rated after sixteen days
Text: as §5

corn = test: as above; assay type: in vivo; details: rated after sixteen days
Text: as §5

sorghum = test: as above; assay type: in vivo; details: POSTEMERGENCE; RATE 0.05 KG/HA; rated after sixteen days
Text: as §5

sicklepod = test: Test B pan test in Sassafras sandy loam soil, pre- and postemergence; assay type: in vivo, Cassia obtusifolia; details: scale 0 to 100
Text: as §1, §2, §3, §4

cocklebur [7] = test: as above; assay type: in vivo, Xantium pensyivanicum; details: scale 0 to 100
Text: as §1, §2, §3, §4

jimsonweed = test: as above; assay type: in vivo, Datura stramonium; details: scale 0 to 100
Text: as §1, §2, §3, §4

velvetleaf = test: Test A greenhouse herbicide test, pre- and postemergence; assay type: in vivo, Abutilon theophrasti; details: rated after sixteen days
Text: as §5

barnyardgrass [8] = test: as above; assay type: in vivo, Echinochloa crusgalli; details: rated after sixteen days
Text: as §5

CCOC(=O)c1c(CC#N)cccc1S(=O)(=O)NC(=O)Nc1nc(OC)cc(OC)n1 [Compound 3, 2-(cyanomethyl)-6 [[(4,6-dimethoxypyrimidin-2-yl)-aminocarbonyl]aminosulfonyl]benzoic acid, ethyl ester]
WHEAT response rating (wheat; POSTEMERGENCE, RATE 0001 G/HA): 30 | WHEAT response rating (wheat; POSTEMERGENCE, RATE 0004 G/HA): 50 | WHEAT response rating (wheat; POSTEMERGENCE, RATE 0016 G/HA): 70 | WHEAT response rating (wheat; POSTEMERGENCE, RATE 0062 G/HA): 100 | WHEAT response rating (wheat; PREEMERGENCE, RATE 0004 G/HA): 0 | WHEAT response rating (wheat; PREEMERGENCE, RATE 0016 G/HA): 30 | WHEAT response rating (wheat; PREEMERGENCE, RATE 0062 G/HA): 70 | MORNING GLORY visual rating of response to treatment (morningglory [1]; POSTEMERGENCE, RATE 0.01 KG/HA): 10C | MORNING GLORY visual rating of response to treatment (morningglory [1]; POSTEMERGENCE, RATE 0.05 KG/HA): 10C | MORNING GLORY visual rating of response to treatment (morningglory [1]; PREEMERGENCE, RATE 0.01 KG/HA): 2G | MORNING GLORY visual rating of response to treatment (morningglory [1]; PREEMERGENCE, RATE 0.05 KG/HA): 9G | WILD OATS visual rating of response to treatment (wild oats [2]): 3G | COCKLEBUR visual rating of response to treatment (cocklebur [3]; RATE 0.01 KG/HA): 10C | COCKLEBUR visual rating of response to treatment (cocklebur [3]; RATE 0.05 KG/HA): 10C | BARNYARD GRASS response rating (barnyardgrass [4]; POSTEMERGENCE, RATE 0001 G/HA): 70 | BARNYARD GRASS response rating (barnyardgrass [4]; POSTEMERGENCE, RATE 0004 G/HA): 100 | BARNYARD GRASS response rating (barnyardgrass [4]; POSTEMERGENCE, RATE 0016 G/HA): 100 | BARNYARD GRASS response rating (barnyardgrass [4]; POSTEMERGENCE, RATE 0062 G/HA): 100 | BARNYARD GRASS response rating (barnyardgrass [4]; PREEMERGENCE, RATE 0004 G/HA): 30 | BARNYARD GRASS response rating (barnyardgrass [4]; PREEMERGENCE, RATE 0016 G/HA): 50 | BARNYARD GRASS response rating (barnyardgrass [4]; PREEMERGENCE, RATE 0062 G/HA): 80 | CRABGRASS response rating (crabgrass; POSTEMERGENCE, RATE 0001 G/HA): 0 | CRABGRASS response rating (crabgrass; POSTEMERGENCE, RATE 0004 G/HA): 30 | CRABGRASS response rating (crabgrass; POSTEMERGENCE, RATE 0016 G/HA): 50 | CRABGRASS response rating (crabgrass; POSTEMERGENCE, RATE 0062 G/HA): 70 | CRABGRASS response rating (crabgrass; PREEMERGENCE, RATE 0004 G/HA): 0 | CRABGRASS response rating (crabgrass; PREEMERGENCE, RATE 0016 G/HA): 30 | CRABGRASS response rating (crabgrass; PREEMERGENCE, RATE 0062 G/HA): 70 | MORNINGGLORY response rating (morningglory [5]; POSTEMERGENCE, RATE 0001 G/HA): 30 | MORNINGGLORY response rating (morningglory [5]; POSTEMERGENCE, RATE 0004 G/HA): 50 | MORNINGGLORY response rating (morningglory [5]; POSTEMERGENCE, RATE 0016 G/HA): 70 | MORNINGGLORY response rating (morningglory [5]; POSTEMERGENCE, RATE 0062 G/HA): 90 | MORNINGGLORY response rating (morningglory [5]; PREEMERGENCE, RATE 0004 G/HA): 0 | MORNINGGLORY response rating (morningglory [5]; PREEMERGENCE, RATE 0016 G/HA): 0 | MORNINGGLORY response rating (morningglory [5]; PREEMERGENCE, RATE 0062 G/HA): 30 | WILD OATS response rating (wild oats [6]; POSTEMERGENCE, RATE 0001 G/HA): 0 | WILD OATS response rating (wild oats [6]; POSTEMERGENCE, RATE 0004 G/HA): 30 | WILD OATS response rating (wild oats [6]; POSTEMERGENCE, RATE 0016 G/HA): 50 | WILD OATS response rating (wild oats [6]; POSTEMERGENCE, RATE 0062 G/HA): 80 | WILD OATS response rating (wild oats [6]; PREEMERGENCE, RATE 0004 G/HA): 20 | WILD OATS response rating (wild oats [6]; PREEMERGENCE, RATE 0016 G/HA): 40 | WILD OATS response rating (wild oats [6]; PREEMERGENCE, RATE 0062 G/HA): 60 | SUGAR BEETS visual rating of response to treatment (sugarbeet; RATE 0.01 KG/HA): 10C | SUGAR BEETS visual rating of response to treatment (sugarbeet; RATE 0.05 KG/HA): 10C | COTTON visual rating of response to treatment (cotton; POSTEMERGENCE, RATE 0.01 KG/HA): 9C | COTTON visual rating of response to treatment (cotton; POSTEMERGENCE, RATE 0.05 KG/HA): 10C | COTTON visual rating of response to treatment (cotton; PREEMERGENCE, RATE 0.01 KG/HA): 3G | CORN visual rating of response to treatment (corn; POSTEMERGENCE, RATE 0.01 KG/HA): 10C | CORN visual rating of response to treatment (corn; PREEMERGENCE, RATE 0.05 KG/HA): 9H | SORGHUM visual rating of response to treatment (sorghum): 9C | CASSIA response rating (sicklepod; POSTEMERGENCE, RATE 0001 G/HA): 30 | CASSIA response rating (sicklepod; POSTEMERGENCE, RATE 0004 G/HA): 50 | CASSIA response rating (sicklepod; POSTEMERGENCE, RATE 0016 G/HA): 70 | CASSIA response rating (sicklepod; POSTEMERGENCE, RATE 0062 G/HA): 90 | CASSIA response rating (sicklepod; PREEMERGENCE, RATE 0004 G/HA): 0 | CASSIA response rating (sicklepod; PREEMERGENCE, RATE 0016 G/HA): 0 | CASSIA response rating (sicklepod; PREEMERGENCE, RATE 0062 G/HA): 0 | COCKLEBUR response rating (cocklebur [7]; POSTEMERGENCE, RATE 0001 G/HA): 70 | COCKLEBUR response rating (cocklebur [7]; POSTEMERGENCE, RATE 0004 G/HA): 80 | COCKLEBUR response rating (cocklebur [7]; POSTEMERGENCE, RATE 0016 G/HA): 90 | COCKLEBUR response rating (cocklebur [7]; POSTEMERGENCE, RATE 0062 G/HA): 100 | COCKLEBUR response rating (cocklebur [7]; PREEMERGENCE, RATE 0004 G/HA): 30 | COCKLEBUR response rating (cocklebur [7]; PREEMERGENCE, RATE 0016 G/HA): 60 | COCKLEBUR response rating (cocklebur [7]; PREEMERGENCE, RATE 0062 G/HA): 90 | JIMSONWEED response rating (jimsonweed; POSTEMERGENCE, RATE 0001 G/HA): 30 | JIMSONWEED response rating (jimsonweed; POSTEMERGENCE, RATE 0004 G/HA): 60 | JIMSONWEED response rating (jimsonweed; POSTEMERGENCE, RATE 0016 G/HA): 100 | JIMSONWEED response rating (jimsonweed; POSTEMERGENCE, RATE 0062 G/HA): 100 | JIMSONWEED response rating (jimsonweed; PREEMERGENCE, RATE 0004 G/HA): 0 | JIMSONWEED response rating (jimsonweed; PREEMERGENCE, RATE 0016 G/HA): 0 | JIMSONWEED response rating (jimsonweed; PREEMERGENCE, RATE 0062 G/HA): 30 | VELVETLEAF visual rating of response to treatment (velvetleaf; POSTEMERGENCE, RATE 0.01 KG/HA): 10C | VELVETLEAF visual rating of response to treatment (velvetleaf; POSTEMERGENCE, RATE 0.05 KG/HA): 10C | VELVETLEAF visual rating of response to treatment (velvetleaf; PREEMERGENCE, RATE 0.01 KG/HA): 2H | VELVETLEAF visual rating of response to treatment (velvetleaf; PREEMERGENCE, RATE 0.05 KG/HA): 5H | BARNYARD GRASS visual rating of response to treatment (barnyardgrass [8]; POSTEMERGENCE, RATE 0.01 KG/HA): 9C | BARNYARD GRASS visual rating of response to treatment (barnyardgrass [8]; POSTEMERGENCE, RATE 0.05 KG/HA): 10C | BARNYARD GRASS visual rating of response to treatment (barnyardgrass [8]; PREEMERGENCE, RATE 0.01 KG/HA): 2G
